Measured values taken from US20240025862A1, “SUBSTITUTED N-PHENYLURACILS AND SALTS THEREOF, AND USE THEREOF AS HERBICIDAL ACTIVE SUBSTANCES” (Bayer Aktiengesellschaft, priority 2020, published 2024).
Blank lines part the entries; values can stand above or below the compound they belong to.

Columns and labels:
Format in all cases: in vivo
Hordeum murinum (HORMU) = experiment: Post-emergence herbicidal action, greenhouse pot test; conditions: rated visually after about 3 weeks vs untreated controls, 100% = plants have died
Method in brief: (§1)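 Activity was scored by eye about 3 weeks after treatment against untreated plants, where 100% means dead plants and 0% means no difference. Plants at the one-leaf stage received a foliar spray of WP or EC formulations in water plus 0.5% additive (600 l/ha, up to 20 g/ha). Plants were grown in sandy loam pots in a greenhouse for 2–3 weeks before spraying.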

Veronica persica (VERPE) = experiment: as above
Method in brief: as §1

[1] = tested on: Amaranthus retroflexus (AMARE); experiment: as above
Method in brief: as §1

[2] = tested on: Pharbitis purpurea (PHBPU); experiment: as above
Method in brief: as §1

[3] = tested on: Abutilon theophrasti (ABUTH); experiment: as above
Method in brief: as §1

Avena fatua (AVEFA) = experiment: as above
Method in brief: as §1

Stellaria media (STEME) = experiment: as above
Method in brief: as §1

Viola tricolor (VIOTR) = experiment: as above
Method in brief: as §1

[4] = tested on: Polygonum convolvulus (POLCO); experiment: as above
Method in brief: as §1

Zea mays (ZEAMX) = experiment: Post-emergence crop plant compatibility, greenhouse pot test; conditions: vs untreated controls
Method in brief: (§2)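 Compatibility was scored as visual % effect against untreated controls about 3 weeks after spraying green plant parts at the one-leaf stage. Formulations (WP/EC) were applied in aqueous form with 0.5% additive, 600 l/ha, to greenhouse-grown pot plants.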

Glycine max (GLXMA) = experiment: as above
Method in brief: as §2

[5] = tested on: Triticum aestivum (TRZAS); experiment: as above; conditions: 1.25 g/ha, vs untreated controls
Method in brief: as §2

[6] = tested on: Matricaria inodora (MATIN); experiment: Post-emergence herbicidal action, greenhouse pot test (also comparative test C)
Method in brief: (§3)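 Greenhouse pot plants in sandy loam were sprayed post-emergence at the one-leaf stage (2–3 weeks after sowing) with WP or EC formulations plus 0.5% additive at 600 l/ha water. Activity was rated visually after about 3 weeks versus untreated controls (100% = dead, 0% = like control); rates were 20 g/ha or less, and 5 g/ha or less in the comparative test.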

[7] = tested on: Alopecurus myosuroides (ALOMY); experiment: as above
Method in brief: as §3

[8] = tested on: Echinochloa crus-galli (ECHCG); experiment: as above
Method in brief: as §3

Setaria viridis (SETVI) = experiment: as above
Method in brief: as §3

Oryza sativa (ORYSA) = experiment: Post-emergence crop plant compatibility, greenhouse pot test (also comparative test C); conditions: vs untreated controls
Method in brief: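 Visual damage versus untreated plants (0% = like control, 100% = plants died) was scored about 3 weeks after a post-emergence spray in greenhouse pots. Treatment: one-leaf stage, WP or EC in water at 600 l/ha with 0.5% additive; a/b/c mark different dosages on the same crop.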

Lolium rigidum (LOLRI) = experiment: Post-emergence herbicidal action, greenhouse pot test
Method in brief: as §1

Brassica napus (BRSNW) = experiment: Post-emergence crop plant compatibility, greenhouse pot test; conditions: 1.25 g/ha, vs untreated controls
Method in brief: as §2

[9] = Veronica persica, 504 h, read-out: Post-emergence action against VERPE
[10] = Ipomoea purpurea, 504 h, read-out: Post-emergence action against PHBPU in %
[11] = Viola tricolor, 504 h, read-out: Post-emergence action against VIOTR
[12] = Fallopia convolvulus, 504 h, read-out: Post-emergence action against POLCO in %
[13] = Tripleurospermum inodorum, 504 h, read-out: Post-emergence action against MATIN in %
[14] = Setaria viridis, 504 h, read-out: Post-emergence action against SETVI in %
[15] = 1.25 g/ha, rated visually after about 3 weeks vs untreated controls, 100% = plants have died
[16] = 5 g/ha, rated visually after about 3 weeks vs untreated controls, 100% = plants have died
[17] = 20 g/ha, rated visually after about 3 weeks vs untreated controls, 100% = plants have died

SMILES: COCCOC(=O)COc1ccccc1Sc1cc(-n2c(=O)cc(C(F)(F)F)n(C)c2=O)c(F)cc1Cl [I.1-1, 2-Methoxyethyl [2-({2-chloro-4-fluoro-5-[3-methyl-2,6-dioxo-4-(trifluoromethyl)-3,6-dihydropyrimidin-1(2H)-yl]phenyl}sulfanyl)phenoxy]acetate]
Post-emergence action at 20 g/ha against HORMU in % (Hordeum murinum (HORMU)): 100% | pest or weed control at 1.25 g/ha (Veronica persica (VERPE); [9]): 80% | pest or weed control at 5 g/ha (Veronica persica (VERPE); [9]): 100% | pest or weed control at 20 g/ha (Veronica persica (VERPE); [9]): 100% | pest or weed control at 1.25 g/ha ([1]; Amaranthus retroflexus, 504 h, read-out: Post-emergence action at 1.25 g/ha against AMARE in %): 90% | pest or weed control at 5 g/ha ([1]; Amaranthus retroflexus, 504 h, read-out: Post-emergence action at 5 g/ha against AMARE in %): 100% | pest or weed control at 20 g/ha ([1]; Amaranthus retroflexus, 504 h, read-out: Post-emergence action at 20 g/ha against AMARE in %): 100% | pest or weed control at 1.25 g/ha [2, 10]: 100% | pest or weed control at 5 g/ha [2, 10]: 100% | pest or weed control at 20 g/ha [2, 10]: 100% | pest or weed control at 1.25 g/ha ([3]; Abutilon theophrasti, 504 h, read-out: Post-emergence action at 1.25 g/ha against ABUTH in %): 100% | pest or weed control at 5 g/ha ([3]; Abutilon theophrasti, 504 h, read-out: Post-emergence action at 5 g/ha against ABUTH in %): 100% | pest or weed control at 20 g/ha ([3]; Abutilon theophrasti, 504 h, read-out: Post-emergence action at 20 g/ha against ABUTH in %): 100% | pest or weed control at 20 g/ha (Avena fatua (AVEFA); Avena fatua, 504 h, read-out: Post-emergence action at 20 g/ha against AVEFA in %): 80% | Post-emergence action against STEME (Stellaria media (STEME); 1.25 g/ha): 80% | Post-emergence action against STEME (Stellaria media (STEME); 5 g/ha): 100% | Post-emergence action against STEME (Stellaria media (STEME); 20 g/ha): 100% | pest or weed control at 1.25 g/ha (Viola tricolor (VIOTR); [11]): 100% | pest or weed control at 5 g/ha (Viola tricolor (VIOTR); [11]): 100% | pest or weed control at 20 g/ha (Viola tricolor (VIOTR); [11]): 100% | pest or weed control at 5 g/ha [4, 12]: 100% | pest or weed control at 20 g/ha [4, 12]: 100% | Post-emergence action against ZEAMX (crop plant compatibility) (Zea mays (ZEAMX); 1.25 g/ha): 20% | Post-emergence action against GLXMA in % (Glycine max (GLXMA); 1.25 g/ha): 0% | Post-emergence action against GLXMA in % (Glycine max (GLXMA); 5 g/ha): 20% | Post-emergence action against TRZAS (crop plant compatibility) [5]: 20% | pest or weed control at 5 g/ha [6, 13]: 100% | pest or weed control at 20 g/ha [6, 13]: 100% | pest or weed control at 20 g/ha ([7]; Alopecurus myosuroides, 504 h, read-out: Post-emergence action at 20 g/ha against ALOMY in %): 80% | pest or weed control at 20 g/ha ([8]; Echinochloa crus-galli, 504 h, read-out: Post-emergence action against ECHCG in %): 80% | pest or weed control at 20 g/ha (Setaria viridis (SETVI); Setaria viridis, 504 h, read-out: Post-emergence action against SETVI): 100% | pest or weed control at 1.25 g/ha (Setaria viridis (SETVI); [14]): 100% | pest or weed control at 5 g/ha (Setaria viridis (SETVI); [14]): 100% | Post-emergence action against ORYSA (crop plant compatibility) (Oryza sativa (ORYSA); 1.25 g/ha): 10% | Post-emergence action against ORYSA (crop plant compatibility) (Oryza sativa (ORYSA); 5 g/ha): 10%

Post-emergence action against ZEAMX (crop plant compatibility) (Zea mays (ZEAMX); 1.25 g/ha): 10% | Post-emergence action against ZEAMX (crop plant compatibility) (Zea mays (ZEAMX); 5 g/ha): 20% | Post-emergence action against BRSNW (crop plant compatibility) (Brassica napus (BRSNW)): 20% | Post-emergence action against ORYSA (crop plant compatibility) (Oryza sativa (ORYSA); 1.25 g/ha): 10%
SMILES: COCCCOC(=O)COc1ccccc1Sc1cc(-n2c(=O)cc(C(F)(F)F)n(C)c2=O)c(F)cc1Cl [I.1-26]
Post-emergence action at 5 g/ha against HORMU in % (Hordeum murinum (HORMU); 5 g/ha): 80% | Post-emergence action at 20 g/ha against HORMU in % (Hordeum murinum (HORMU)): 90% | Post-emergence action against VERPE (Veronica persica (VERPE); 1.25 g/ha): 100% | Post-emergence action against VERPE (Veronica persica (VERPE); 5 g/ha): 100% | Post-emergence action against VERPE (Veronica persica (VERPE); 20 g/ha): 100% | Post-emergence action at 1.25 g/ha against AMARE in % [1, 15]: 100% | Post-emergence action at 5 g/ha against AMARE in % [1, 16]: 100% | Post-emergence action at 20 g/ha against AMARE in % [1, 17]: 100% | Post-emergence action at 5 g/ha against LOLRI in % (Lolium rigidum (LOLRI); [16]): 80% | Post-emergence action against LOLRI in % (Lolium rigidum (LOLRI); dosage 20 g/ha): 90% | Post-emergence action against PHBPU in % ([2]; dosage 1.25 g/ha): 100% | Post-emergence action against PHBPU in % ([2]; dosage 5 g/ha): 100% | Post-emergence action against PHBPU in % ([2]; dosage 20 g/ha): 100% | Post-emergence action at 1.25 g/ha against ABUTH in % [3, 15]: 100% | Post-emergence action at 5 g/ha against ABUTH in % [3, 16]: 100% | Post-emergence action at 20 g/ha against ABUTH in % [3, 17]: 100% | Post-emergence action at 20 g/ha against AVEFA in % (Avena fatua (AVEFA); [17]): 80% | Post-emergence action against STEME (Stellaria media (STEME); 1.25 g/ha): 100% | Post-emergence action against STEME (Stellaria media (STEME); 5 g/ha): 100% | Post-emergence action against STEME (Stellaria media (STEME); 20 g/ha): 100% | Post-emergence action against VIOTR (Viola tricolor (VIOTR); 1.25 g/ha): 100% | Post-emergence action against VIOTR (Viola tricolor (VIOTR); 5 g/ha): 100% | Post-emergence action against VIOTR (Viola tricolor (VIOTR); 20 g/ha): 100% | Post-emergence action against POLCO in % ([4]; dosage 1.25 g/ha): 100% | Post-emergence action against POLCO in % ([4]; dosage 5 g/ha): 100% | Post-emergence action against POLCO in % ([4]; dosage 20 g/ha): 100% | Post-emergence action against MATIN in % ([6]; dosage 1.25 g/ha): 80% | Post-emergence action against MATIN in % ([6]; dosage 5 g/ha): 80% | Post-emergence action against MATIN in % ([6]; dosage 20 g/ha): 100% | Post-emergence action at 5 g/ha against ALOMY in % [7, 16]: 80% | Post-emergence action at 20 g/ha against ALOMY in % [7, 17]: 90% | Post-emergence action at 1.25 g/ha against ECHCG in % [8, 15]: 90% | Post-emergence action against ECHCG in % ([8]; dosage 5 g/ha): 90% | Post-emergence action against ECHCG in % ([8]; dosage 20 g/ha): 100% | Post-emergence action against SETVI (Setaria viridis (SETVI); 20 g/ha): 100% | Post-emergence action against SETVI in % (Setaria viridis (SETVI); dosage 1.25 g/ha): 100% | Post-emergence action against SETVI in % (Setaria viridis (SETVI); dosage 5 g/ha): 100%
